{"source": "patent US20100137449A1", "about": "“SUBSTITUTED 1,3-CYCLOPENTADIONE MULTI-TARGET PROTEIN KINASE MODULATORS OF CANCER, ANGIOGENESIS AND THE INFLAMMATORY PATHWAYS ASSOCIATED THEREWITH” (METAPROTEOMICS, LLC, priority 2007, published 2010)", "key": {"Bmx(h)": {"target": "T1, Bmx(h) (Homo sapiens, UniProt P51813)", "T1 sequence (P51813 1-675)": "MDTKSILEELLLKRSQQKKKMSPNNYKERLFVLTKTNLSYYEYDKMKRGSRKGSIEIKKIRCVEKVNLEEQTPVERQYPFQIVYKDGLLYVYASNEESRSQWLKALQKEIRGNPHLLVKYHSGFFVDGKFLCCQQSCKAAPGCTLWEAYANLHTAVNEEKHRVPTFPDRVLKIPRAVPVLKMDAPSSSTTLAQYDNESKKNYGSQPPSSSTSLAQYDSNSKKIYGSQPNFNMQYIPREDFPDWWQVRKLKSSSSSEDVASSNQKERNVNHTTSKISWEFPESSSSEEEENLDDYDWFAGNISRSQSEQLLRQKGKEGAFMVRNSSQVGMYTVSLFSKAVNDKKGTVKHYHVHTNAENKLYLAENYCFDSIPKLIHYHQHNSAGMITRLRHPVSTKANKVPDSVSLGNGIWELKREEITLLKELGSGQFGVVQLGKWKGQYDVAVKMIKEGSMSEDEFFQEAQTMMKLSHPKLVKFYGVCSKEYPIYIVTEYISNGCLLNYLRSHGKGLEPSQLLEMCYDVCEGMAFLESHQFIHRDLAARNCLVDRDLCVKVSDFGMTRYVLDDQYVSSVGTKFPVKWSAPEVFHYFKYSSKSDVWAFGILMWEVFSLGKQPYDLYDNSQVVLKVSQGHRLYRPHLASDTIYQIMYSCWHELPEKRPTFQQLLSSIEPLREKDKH", "test": "KinaseProfiler Assay"}, "rat aortic rings": {"tested_on": "rat aortic rings", "test": "Ex vivo rat aortic ring angiogenesis assay", "format": "cell-based", "procedure": "These ex vivo organo-typic cultures were treated with single compound. […] Neovascularization was evaluated as a marker of the observed angiogenic response.\nStatistical analysis—Analysis of variance was performed on the six observations per treatment for the controls and two test concentrations after normalizing to the dimethyl sulfoxide control. The probability of a type I error was set at the nominal five percent level."}, "HUVEC": {"tested_on": "HUVEC", "test": "Migration wound healing assay", "format": "cell-based", "method": "Methodology—A day before the assay, 5×10^5 endothelial cells were plated in E-well plates and grown in adequate complete medium over night. Confluent HUVEC monolayers were then scraped to create a wound. Cells were the treated with 20 ug/ml of each drug. After wounding and 6 hours later, two different fields of each wound were photographed with a phase-contrast microscope. Measurements of the width of each wound were made in each experimental condition. At the start of the experiment, the wound size was measured and scored as 100%. After 6 hours, the width of the remaining wound was measured and average percent wound closure was calculated."}, "endothelial cells": {"tested_on": "endothelial cells", "test": "Proliferation assay (DNA content, Hoechst 33258)", "format": "cell-based", "procedure": "Methodology—A day before the assay, 1×10^4 endothelial cells were plated in quadruplicate in 24-well plates ad grown in adequate complete medium over night. Cells were then treated with 10 ug/ml and 20 ug/ml of each drug. […] The dilutions and concentrations of the dyes were chosen to yield appropriate dye/base pair ratios that are crucial to obtain maximal linearity and sensitivity of the DNA quantification assays. After an incubation time of ˜10 min, fluorescence intensities were measure. All investigations were generally performed at room temperature with the solutions protected from light. Spectrofluorimetric measurements were performed with Spectramax Gemini XS. […] Florescence values were converted into DNA concentrations according to the fluorescence intensities of DNA standard calibration curves."}}, "note": "Marks after values point to notes of the source that are not given here."}
{"smiles": "CC(C)CCC(=O)[C@]1(O)C(O)=C(C(=O)C(C)C)C(=O)[C@H]1CCC(C)C", "note": "[TH1, tetrahydro-isocohumulone]", "values": [{"measurement": "activity in inhibiting BMX in comparison with TH4 and TH5", "setting": "Bmx(h); 100 μg/ml", "value": "about 50%"}]}
{"smiles": "CCC(C)C(=O)C1=C(O)[C@@](O)(C(=O)CCC(C)C)[C@H](CCC(C)C)C1=O", "note": "(stereo partly shown) [TH4, tetrahydro-isoadhumulone]", "values": [{"measurement": "inhibition of BMX kinase", "setting": "Bmx(h); 100 μg/mL", "value": "inhibit it almost completely"}]}
{"smiles": "COc1cc(O)c(CC=C(C)C)c(O)c1C(=O)/C=C/c1ccc(O)cc1", "note": "[Xanthohumol, xanthohumol]", "values": [{"measurement": "Relative Number of Vessels vs Dimethyl Sulfoxide Controls", "setting": "rat aortic rings; 5.0 μg/mL", "value": 95.9}, {"measurement": "Relative Number of Vessels vs Dimethyl Sulfoxide Controls", "setting": "rat aortic rings; 20 μg/mL", "value": 100}, {"measurement": "vessel growth (in words)", "setting": "rat aortic rings; 20 and 5 μg/mL", "value": "not active"}, {"measurement": "Summary of Effects: Aortic Angiogenesis", "setting": "rat aortic rings; summary table", "value": "Not Active"}, {"measurement": "Relative Percent Wound Closure at Six Hours vs Dimethyl Sulfoxide Controls", "setting": "HUVEC; 20 μg/mL, HUVEC, six hours", "value": "45** Percent"}, {"measurement": "wound closure (in words)", "setting": "HUVEC; 20 ug/ml, 6 hours", "value": "most active of the test materials"}, {"measurement": "Summary of Effects: Migration", "setting": "HUVEC; summary table", "value": "−60", "unit": "%"}, {"measurement": "Relative DNA Content vs Dimethyl Sulfoxide Controls", "setting": "endothelial cells; 24 Hours, 10 μg/mL", "value": 95}, {"measurement": "Relative DNA Content vs Dimethyl Sulfoxide Controls", "setting": "endothelial cells; 24 Hours, 20 μg/mL", "value": "66**"}, {"measurement": "Relative DNA Content vs Dimethyl Sulfoxide Controls", "setting": "endothelial cells; 48 Hours, 10 μg/mL", "value": "82**"}, {"measurement": "Relative DNA Content vs Dimethyl Sulfoxide Controls", "setting": "endothelial cells; 48 Hours, 20 μg/mL", "value": "57**"}, {"measurement": "Relative DNA Content vs Dimethyl Sulfoxide Controls", "setting": "endothelial cells; 72 Hours, 10 μg/mL", "value": "71**"}, {"measurement": "Relative DNA Content vs Dimethyl Sulfoxide Controls", "setting": "endothelial cells; 72 Hours, 20 μg/mL", "value": "42**"}, {"measurement": "Summary of Effects: Proliferation", "setting": "endothelial cells; summary table", "value": "−60", "unit": "%"}]}
